# Laboratory results from paper PMC9415951 (Viruses, 2022).
# Entries after “also recorded” stand apart in the source; their conditions may differ. Counter-ions that a name gives are not always drawn. Like-named read-outs stand apart in the source and are kept apart here.
# Key:
# SARS-CoV-2 [1] = test: microbe, parasite or virus in culture; type: cell-based; conditions: for protective effect against SARS-CoV-2 infectivity (in words): preincubation 2 h, crystal violet 72 h after infection; for inhibition at 100 µM: Severe acute respiratory syndrome coronavirus 2, Vero
# [2] = target: recombinant human factor Xa (Homo sapiens, UniProt P00742); test: Factor Xa inhibition assay (chromogenic substrate S-2765); type: biochemical
# Chain of recombinant human factor Xa (P00742 235-488 limits assumed): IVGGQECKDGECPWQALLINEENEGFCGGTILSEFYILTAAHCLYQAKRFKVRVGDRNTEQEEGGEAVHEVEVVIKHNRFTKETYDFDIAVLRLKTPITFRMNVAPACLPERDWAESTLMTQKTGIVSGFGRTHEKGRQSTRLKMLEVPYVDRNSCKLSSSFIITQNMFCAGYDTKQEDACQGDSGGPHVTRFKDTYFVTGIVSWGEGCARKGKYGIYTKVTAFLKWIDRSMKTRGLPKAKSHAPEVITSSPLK
# Chain of recombinant human factor Xa (P00742 41-179 partner limits assumed): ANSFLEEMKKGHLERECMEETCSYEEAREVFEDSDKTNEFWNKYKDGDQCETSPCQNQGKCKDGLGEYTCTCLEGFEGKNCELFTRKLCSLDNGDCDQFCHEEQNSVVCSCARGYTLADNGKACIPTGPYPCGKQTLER
# [3] = Cytotoxicity assay (XTT) on VERO cells; type: cell-based, African green monkey; conditions: African green monkey
# bovine thrombin = bovine thrombin (Bos taurus, UniProt P00735); test: Thrombin inhibition assay (chromogenic substrate S-2238); type: biochemical
# [4] = Stability in phosphate buffer solution pH 7.4 (RP-HPLC); type: physicochemical; conditions: for residual, % of the starting concentration: pH 7.4 buffer
# SARS-CoV-2 [5] = type: cell-based; conditions: 100 µM, virus coincubated with compound before infecting VERO cells
# [6] = Stability in pooled human serum (RP-HPLC); type: in vitro ADME; conditions: for residual, % of the starting concentration: human serum
# VERO cells = test: Cytotoxicity assay (XTT) on VERO cells; type: cell-based, African green monkey; conditions: 100 µM, 72 h
# [7] = Cheng-Prousoff from IC50, mean of three measurements, read-out: Enzyme Inhibition, Ki, Factor Xa
# [8] = VERO cells, confluent monolayers (mock-infected), 72 h, XTT, read-out: VERO Cells Toxicity, CC50
# [9] = Cheng-Prousoff from IC50, mean of three measurements, read-out: Enzyme Inhibition, Ki, Thrombin
SMILES,protective effect against SARS-CoV-2 infectivity (in words) (SARS-CoV-2 [1]; 100 µM),"Ki [2, 7] [nM]","residual, % of the starting concentration ([4]; 0 h) [%]","residual, % of the starting concentration ([4]; 1 h) [%]","residual, % of the starting concentration ([4]; 4 h) [%]","residual, % of the starting concentration ([4]; 12 h) [%]","residual, % of the starting concentration ([4]; 24 h) [%]",effect on SARS-CoV-2 infectivity (in words) (SARS-CoV-2 [5]),"residual, % of the starting concentration ([6]; 0 h) [%]","residual, % of the starting concentration ([6]; 1 h) [%]","inhibition mechanism, fXa ([2]; time-dependent inhibition)","VERO Cells Toxicity, Cytotoxicity at 100 µM (% of nonviable cells) (VERO cells; XTT, mock-infected VERO cells) [%]","CC50 at 72 h [3, 8] [nM]","VERO Cells Toxicity, Cytotoxicity at 100 µM (% of nonviable cells) (VERO cells; African green monkey) [%]",CC50 at 72 h [3] [nM],Ki (bovine thrombin; [9]) [nM],"inhibition mechanism, thrombin (bovine thrombin; time-dependent inhibition)",other results
N=C(N)N1CCC(C(=O)Nc2cccc(OCc3cc(-c4ccc(Cl)s4)on3)c2)CC1 [Compound 3],completely inhibited; also recorded: statistically significant protective effects; also recorded: totally block SARS-CoV-2 entry,15,100,98.8±0.5,98.1±1.5,97.5±0.5,97.9±1.0,did decrease viral infectivity; also recorded: best candidate against the viral infection,100,95.8±1.0,–,–,–,–,–,–,–,"inhibition at 100 µM (SARS-CoV-2 [1]; read-out: inhibition of virus infectivity): 100%; inhibitory effects on SARS-CoV-2 infection (SARS-CoV-2 [1]; lower concentrations 3–50 µM, preincubation, VERO cells): ca. 30%; Ki ([2]; Ki, factor Xa, time-dependent inhibition, incubation time 0 min): 20 ± 7 nM; Ki ([2]; Ki, factor Xa, time-dependent inhibition, incubation time 15 min): 17 ± 8 nM; CC50 at 72 h ([3]; 72 h, XTT, read-out: VERO Cells Toxicity, CC50): 155000 ± 16000 nM; time dependence of inhibition constant (bovine thrombin; preincubation 0, 15, 30 min): did not show any significant time-dependent change in inhibition constant; hydrolytic degradation after 24 h ([4]; PBS pH 7.4, 24 h): less than 10%; residual, % of the starting concentration ([6]; 4 h): 96.6±1.5%; residual, % of the starting concentration ([6]; 12 h): 93.2±2.5%; residual, % of the starting concentration ([6]; 24 h): 96.8±3.0%; hydrolytic degradation after 24 h ([6]; pooled blood human serum, 24 h): less than 10%"
"[H]/N=C(/N)c1ccc(NCc2nc3cc(C(=O)N(CCC(=O)O)c4ccccn4)ccc3n2C)cc1 [Dabigatran, dabigatran]",did not show any effect; also recorded: did not show any ability to reduce the virus infectivity,–,–,–,–,–,–,–,–,–,reversible inhibitors,18.3 ± 0.8,> 200000,–,–,–,–,"inhibition mechanism, thrombin (bovine thrombin): reversible inhibitors"
CC(C)N1CCC(C(=O)Nc2ccccc2OCc2cc(-c3ccc(Cl)s3)on2)CC1 [Compound 2],did not show any ability to reduce the virus infectivity,0.3,–,–,–,–,–,–,–,–,–,–,–,7.45 ± 0.24,> 200000,–,–,–
"N=C(N)c1ccc2cc(OC(=O)c3ccc(N=C(N)N)cc3)ccc2c1 [Nafamostat, Nafamostat mesylate]",did not achieve statistically significant activity,–,100,87.6±1.2,81.6±1.8,73.8±3.0,61.4±2.8,–,100,21.2±5.2,covalent inhibitor,16.0 ± 0.8,> 200000,–,–,10,covalent inhibitor,"protective effect against SARS-CoV-2 infectivity (in words) (SARS-CoV-2 [1]; 100 µM, listed as NAF): weak (nonsignificant) protective effect; cellular monolayer preserved (SARS-CoV-2 [1]; 100 µM, preincubation, crystal violet staining): around 60%; cells with SARS-CoV-2 detected (SARS-CoV-2 [1]; 100 µM, preincubation, immunofluorescence): ~ 25%; activity against SARS-CoV-2 infection over scalar concentrations (in words) (SARS-CoV-2 [1]; 3–100 µM, preincubation): not to have statistically significant activity; inhibition at 100 µM (SARS-CoV-2 [1]; read-out: reduction of viral entry (inhibition)): ~20%; inhibition of SARS-CoV-2 infection (SARS-CoV-2 [1]; whole range of test concentrations 3–100 µM, VERO cells): 15–20%; Ki ([2]; incubation time 0 min, read-out: Ki, factor Xa, time-dependent inhibition): 363 ± 6 nM; Ki ([2]; incubation time 15 min, read-out: Ki, factor Xa, time-dependent inhibition): 340 ± 10 nM; Ki ([2]; incubation time 30 min, read-out: Ki, factor Xa, time-dependent inhibition): 225 ± 9 nM; Ki (bovine thrombin; incubation time 0 min, read-out: Ki, thrombin, time-dependent inhibition): 77 nM; Ki (bovine thrombin; incubation time 15 min, read-out: Ki, thrombin, time-dependent inhibition): 13 nM; Ki (bovine thrombin; incubation time 30 min, read-out: Ki, thrombin, time-dependent inhibition): 5 nM; residual, % of the starting concentration ([4]; 0.5 h): 95.1±0.5%; residual, % of the starting concentration ([4]; 2 h): 84.9±1.0%; residual, % of the starting concentration ([4]; 8 h): 78.4±2.5%; half-life at 100 µM ([4]; phosphate buffer solution (PBS), PBS pH 7.4, 37 °C): ~45 h; residual, % of the starting concentration ([6]; 0.5 h): 45.9±4.3%; residual, % of the starting concentration ([6]; 2 h): 5.1±3.3%; half-life at 100 µM ([6]; pooled human serum, 37 °C, read-out: half-life in human pooled blood serum): 0.267 h"
"O=C(NC[C@H]1CN(c2ccc(N3CCOCC3=O)cc2)C(=O)O1)c1ccc(Cl)s1 [Rivaroxaban, rivaroxaban]",did not show any effect; also recorded: did not show any ability to reduce the virus infectivity,–,–,–,–,–,–,–,–,–,reversible inhibitors,29.4 ± 0.8,> 200000,–,–,–,reversible inhibitors,Ki (bovine thrombin): 12000 nM
N=C(N)N1CCC(C(=O)Nc2ccccc2OCc2cc(-c3ccc(Cl)s3)on2)CC1 [Compound 1],weak (nonsignificant) protective effect,2,–,–,–,–,–,did decrease viral infectivity,–,–,–,–,–,20.3 ± 0.9,> 200000,6820,–,–
